Consider 14 molecules from paper PMC7782983, “Anion inhibition studies of the Zn(II)-bound ι-carbonic anhydrase from the Gram-negative bacterium Burkholderia territorii” (Journal of Enzyme Inhibition and Medicinal Chemistry, 2021).

Molecules are shown by their SMILES.

The first assay addresses BteCAι. In words: stopped-flow CO2 hydrase assay. The note with it: CO2 hydration, HEPES pH 7.5, 20 mM NaClO4, 15 min preincubation, room temperature; Zn(II) enzyme; read-out: KI (mM)^a / BteCAι^d. In kind it is biochemical, Burkholderia territorii.
Turning to `N#CO` [CNO^−], the Ki amounted to 0.79 mM. The same measure, in the same setting: the figure for `O=C(O)O` [CO3^2−] is 4.4 mM. With `Cl` [Cl^−], the Ki came to 3.1 mM. Regarding `CCN(CC)C(=S)S` [EtNCS2^−], the Ki worked out at 0.81 mM. On the same count and under the same terms, for `O=C(O)O` [HCO3^−] the value was 0.94 mM; for `NS(N)(=O)=O` [NH2SO2NH2], 0.086 mM. `NS(=O)(=O)O` [NH2SO3H]: the Ki is 0.0062 mM.

Regarding `OB(O)c1ccccc1` [PhB(OH)2], the Ki was 0.009 mM. Turning to `O=S(=O)(O)OOS(=O)(=O)O` [S2O8^2−], the Ki was determined as 7.4 mM. Same read-out and setting: the figure for `N#CS` [SCN^−] is 6.1 mM; for `O=S(=O)(O)O` [SO4^2−] it is 5.8 mM; for `N#C[SeH]` [SeCN^−] it is 6.6 mM. Regarding `[O]=[Sn]([OH])[OH]` [SnO3^2−], the Ki is 0.094 mM.

Still in this assay, the particulars now being: read-out: KI (mM)^a / BteCAι^d.
As for `O=[As](O)(O)c1ccccc1` [PhAsO3H2], the Ki is 0.008 mM.
